The NIST ThermoML archive (doi:10.1007/s10765-010-0742-8)
“And” between values parts separate entries of the source, which are not always exact repeats. Identical values can stand only once. Numbers after ± are expanded uncertainties.

How the values were obtained:
[1] = mn = molality of the nth substance listed, in mol/kg; conditions: 101 kPa, Liquid, m1 = 0.1; for viscosity: Capillary tube (Ostwald / Ubbelohde) method; for mass density: Pycnometric method
[2] = refractive index (Na D-line) (dimensionless); mn = molality of the nth substance listed, in mol/kg; conditions: 101 kPa, Liquid, Standard Abbe refractometry, m1 = 0.1

**Q.** With O=C[C@H](O)[C@@H](O)[C@@H](O)[C@H](O)CO [(+)-galactose] + O as the compound, how does the viscosity ([1]; 298.15 K) read?
**A.** Its viscosity is 0.9284 ± 0.0067 mPa·s.

**Q.** What about the mass density ([1]; 298.15 K) of the same compound?
**A.** Its mass density is 1003.9 ± 0.3 kg/m3.

**Q.** What about the viscosity ([1]; 303.15 K) of the same compound?
**A.** Its viscosity is 0.8345 ± 0.0061 mPa·s.

**Q.** What about the mass density ([1]; 303.15 K) of the same compound?
**A.** The mass density was 1002.3 ± 0.4 kg/m3 and 1002.4 ± 0.4 kg/m3.

**Q.** And the viscosity ([1]; 308.15 K)?
**A.** The viscosity was 0.7518 ± 0.0055 mPa·s.

**Q.** What about the mass density ([1]; 308.15 K) of the same compound?
**A.** The mass density was 1001 ± 0.4 kg/m3.

**Q.** And the viscosity ([1]; 313.15 K)?
**A.** Its viscosity is 0.6858 ± 0.0051 mPa·s.

**Q.** And the mass density ([1]; 313.15 K)?
**A.** Its mass density is 999.5 ± 0.4 kg/m3.

**Q.** And the refractive index ([2]; 298.15 K)?
**A.** Its refractive index is 1.3345 ± 0.0004.

**Q.** What about the refractive index ([2]; 303.15 K) of the same compound?
**A.** Its refractive index is 1.334 ± 0.0004 and 1.3339 ± 0.0004.

**Q.** And the refractive index ([2]; 308.15 K)?
**A.** Its refractive index is 1.3335 ± 0.0004.

**Q.** What about the refractive index ([2]; 313.15 K) of the same compound?
**A.** Its refractive index is 1.3329 ± 0.0004.
